Data from patent US11013696B2, “Lipids and lipid compositions for the delivery of active agents” (Novartis AG, priority 2013, dated 2021).

Assay: Percent encapsulation of mRNA in lipid nanoparticles (Quant-iT Ribogreen)
Assay type: physicochemical
Conditions: Table 2; leptin mRNA in LNP with the cationic lipid
Experimental: All equipment and disposable supplies are certified free of RNase activity by the manufacturer or rendered RNase free by use of the RNaseZap reagent (LifeTechnologies). mRNA is encapsulated at a cationic lipid amine to mRNA phosphate (N:P) molar ratio of 4:1. Lipids (cationic lipid, DSPC, cholesterol and lipidated PEG or stealth lipid) are dissolved in ethanol. The molar ratios are 40:10:38:2, respectively. The mixture is sonicated briefly, then gently agitated for 5 minutes and then maintained at 37° C. until use. mRNA is exchanged into citrate buffer pH 5.8-6.0 by use of Amicon Ultra-15 centrifugal concentrators, and the final concentration is adjusted to 0.5 mg/ml and held at 37° C. until use. An equal volume of lipids in ethanol, mRNA in citrate buffer, and citrate buffer alone are drawn into disposable syringes. Tubing leading from syringes containing lipids and mRNA are attached to the T junction, and tubing leading from the syringe containing citrate buffer alone is paired with the tubing exiting the T-junction over a collection vessel containing a stir bar on an active stir plate. Syringes are placed in a syringe pump set to expel contents at a flow rate of 1 ml per minute.
The pump is activated, and the collected mRNA in lipid nanoparticles is transferred to SnakeSkin dialysis tubing (10,000 MWCO, Thermo Scientific). Material is dialyzed against RNAse- and pyrogen-free 1× phosphate buffered saline overnight at 4° C.
Percent encapsulation of mRNA in lipid nanoparticles is determined using the Quant-iT Ribogreen RNA Assay kit (Life Technologies). The LNP-mRNA suspension is assayed in buffer (mRNA outside the particle), and buffer plus Triton X-100 detergent (total mRNA). The difference calculated is the mRNA inside the particle. Prepare a 1000 ng/mL stock from the RNA provided in the kit and use this to generate a standard curve (0 ng/ml, 15.63-1000 ng/ml) in TE and TE+0.75% Triton X-100. Prepare LNP-mRNA samples in TE buffer and TE buffer +0.75% Triton X-100 with appropriate dilution so that reading is in the range of standard curve (400-2,000 fold). In a 384-well plate (Costar non-treated #3573) add 0.04 ml of standard (in duplicate) or sample (in triplicate) per well. Dilute Ribogreen reagent 240-fold in TE buffer and add 0.06 ml per well. Mix contents of wells and measure fluorescence (excitation=480 nm, emission=520 nm). Subtract background values (no RNA) from standard and test sample values and determine the concentrations of RNA in the samples using the standard curves. Determine the percent encapsulation of the sample by dividing the difference in concentrations between sample+triton and sample in buffer alone by the sample+triton concentration.

| % encapsulation mRNA Leptin | Compound |
| --- | --- |
| 96.6% | CCCCCCCCCCCCC(CCCOC(=O)CCCCC(COC(=O)CCCCCCC)COC(=O)CCCCCCC)OC(=O)O[C@H]1CCN(C)C1 (stereo partly drawn) [Example 134, 2-(5-((4-(((((S)-1-methylpyrrolidin-3-yl)oxy)carbonyl)oxy)hexadecyl)oxy)-5-oxopentyl)propane-1,3-diyl dioctanoate] |
| 97.4% | CCCCCCCCCCC(CCOC(=O)CCCCC(OCCCCCCCC)OCCCCCCCC)OC(=O)OCCCN(CC)CC (stereo not shown) [Example 126, 3-(((3-(diethylamino)propoxy)carbonyl)oxy)tridecyl 6,6-bis(octyloxy)hexanoate] |
| 83.8% | CCCCCCCCCCCCC(CCOC(=O)CCCCC(OCCCCCCCC)OCCCCCCCC)OC(=O)CCCCN(CC)CC (stereo not shown) [Example 123, 3-((5-(diethylamino)pentanoyl)oxy)pentadecyl 6,6-bis(octyloxy)hexanoate] |
| 91.5% | CCCCCCCCCCCCC(OC(=O)OCCCN(CC)CC)C(=O)OC(COC(=O)CCCCCCC)COC(=O)CCCCCCC (stereo not shown) [Example 100, 2-((2-(((3-(diethylamino)propoxy)carbonyl)oxy)tetradecanoyl)oxy)propane-1,3-diyl dioctanoate)] |
| 93.0% | CCCCCCCC(=O)OCCCCCCCCCCC(CCOC(=O)CCCCCC(CCCCCC)CCCCCC)OC(=O)OCCCN(C)C (stereo not shown) [Example 64, 3-(((3-(dimethylamino)propoxy)carbonyl)oxy)-13-(octanoyloxy)tridecyl 7-hexyltridecanoate] |
| 68.5% | CCCCCCCCCCCCCC(=O)OCC(COC(=O)CCCCCCCCCCCCC)OC(=O)CCC(CCCCCCCCCCCC)OC(=O)OCCCN(C)CC (stereo not shown) [Example 86, 2-((4-(((3-(ethyl(methyl)amino)propoxy)carbonyl)oxy)hexadecanoyl)oxy)propane-1,3-diyl ditetradecanoate] |
| 92.9% | CCCCCCCCCCCCC(CCCOC(=O)CCCCC(COC(=O)CCCCCCC)COC(=O)CCCCCCC)OC(=O)OCCCN(CC)CC (stereo not shown) [Example 138, 2-(10-dodecyl-3-ethyl-8,15-dioxo-7,9,14-trioxa-3-azanonadecan-19-yl)propane-1,3-diyl dioctanoate] |
| 92.5% | CCCCCCCCCCCCC(CCOC(=O)OCCCN(CC)CC)OC(=O)CCCCC(COC(=O)CCCCCCC)COC(=O)CCCCCCC (stereo not shown) [Example 142, 2-(12-dodecyl-3-ethyl-8,14-dioxo-7,9,13-trioxa-3-azaoctadecan-18-yl)propane-1,3-diyl dioctanoate] |
| 95.1% | CCCCCCCCOC(CCCCC(=O)OCCC(CCCCCCCC)OC(=O)OCCCN(CC)CC)OCCCCCCCC (stereo not shown) [Example 125, 3-(((3-(diethylamino)propoxy)carbonyl)oxy)undecyl 6,6-bis(octyloxy)hexanoate] |
| 96.8% | CCCCCCCCCCCCC(CCCC(=O)OCCCC(OCCCCCCCC)OCCCCCCCC)OC(=O)OCCCN(CC)CC (stereo not shown) [Example 129, 4,4-bis(octyloxy)butyl 5-(((3-(diethylamino)propoxy)carbonyl)oxy)heptadecanoate] |
| 71.2% | CCCCCCCCCCCCC(CCOC(=O)CCCCC(OCCCCCCCC)OCCCCCCCC)OC(=O)CCC1CCN(C)CC1 (stereo not shown) [Example 121, 3-((3-(1-methylpiperidin-4-yl)propanoyl)oxy)pentadecyl 6,6-bis(octyloxy)hexanoate] |
| 98.0% | CCCCCCCCCCCCC(CCOC(=O)CCCCC1OC(CCCCCCC)CC(CCCCCCC)O1)OC(=O)OCCCN(CC)CC (stereo not shown) [Example 124, 3-(((3-(diethylamino)propoxy)carbonyl)oxy)pentadecyl 5-(4,6-diheptyl-1,3-dioxan-2-yl)pentanoate] |
| 96.1% | CCCCCCCCCCCCC(CCOC(=O)CCCCC(OCCCCCCCC)OCCCCCCCC)OC(=O)C1(C)CCN(C)C1 (stereo not shown) [Example 120, 1-((6,6-bis(octyloxy)hexanoyl)oxy) pentadecan-3-yl 1,3-dimethylpyrrolidine-3-carboxylate] |
| 98.1% | CCCCCCCCCCCCC(CCCOC(=O)CCCCC(COC(=O)CCCCCCC)COC(=O)CCCCCCC)OC(=O)OC1CCN(C)CC1 (stereo not shown) [Example 137, 2-(5-((4-((((1-methylpiperidin-4-yl)oxy)carbonyl)oxy)hexadecyl)oxy)-5-oxopentyl)propane-1,3-diyl dioctanoate] |
| 93.3% | CCCCCCCCCCCCC(CCOC(=O)CCCCC(OCCC(CC)CC)OCCC(CC)CC)OC(=O)OCCCN(C)C (stereo not shown) [Example 116, 3-(((3-(dimethylamino)propoxy)carbonyl)oxy)pentadecyl 6,6-bis((3-ethylpentyl)oxy)hexanoate] |
| 97.5% | CCCCCCCCCCCCC(CCOC(=O)CCCCC(OCCCCCCCC)OCCCCCCCC)OC(=O)C1(C)CCN(C)CC1 (stereo not shown) [Example 122, 1-((6,6-bis(octyloxy)hexanoyl)oxy) pentadecan-3-yl 1,4-dimethylpiperidine-4-carboxylate] |
| 98.4% | CCCCCCCCCCCCC(CCOC(=O)CCCCC(OCC(CCC)CCC)OCC(CCC)CCC)OC(=O)OCCCN(CC)CC (stereo not shown) [Example 114, 3-(((3-(diethylamino)propoxy)carbonyl)oxy)pentadecyl 6,6-bis((2-propylpentyl)oxy)hexanoate] |
| 81.9% | CC/C=C\C/C=C\C/C=C\CCCCCCCC(=O)OCC(COC(=O)CCCCCCC/C=C\C/C=C\C/C=C\CC)OC(=O)CCC(CCCCCCCCCCCC)OC(=O)OCCCN(C)C (stereo not shown) [Example 82, (9Z,9′Z,12Z,12′Z,15Z,15′Z)-2-((4-(((3-(dimethylamino)propoxy)carbonyl)oxy)hexadecanoyl)oxy)propane-1,3-diyl bis(octadeca-9,12,15-trienoate)] |
| 59.3% | CCCCCCCCCCCCC(CCOC(=O)CCCCC(OCCCCCCCC)OCCCCCCCC)OC(=O)OCCCN1CCN(C)CC1 (stereo not shown) [Example 110, 3-(((3-(4-methylpiperazin-1-yl)propoxy)carbonyl)oxy)pentadecyl 6,6-bis(octyloxy)hexanoate] |
| 5.0% | CCCCCCCCCCCCC(CCOC(=O)CCCCC(OCCCCCCCC)OCCCCCCCC)OC(=O)[C@H]1CCCN1C (stereo partly drawn) [Example 117, (2R)-1-((6,6-bis(octyloxy)hexanoyl)oxy) pentadecan-3-yl 1-methyl pyrrolidine-2-carboxylate] |
| 32.9% | CCCCCCCCCCCCC(CCOC(=O)CCCCC(OCCCCCCCC)OCCCCCCCC)OC(=O)OCCCN1CCOCC1 (stereo not shown) [Example 112, 3-(((3-morpholinopropoxy)carbonyl)oxy) pentadecyl 6,6-bis(octyloxy) hexanoate] |
| 82.0% | CCCCCCCCCCCCC(CCC(=O)OC(COC(=O)CCCCCCC)COC(=O)CCCCCCC)OC(=O)OCCCN(C)CC (stereo not shown) [Example 93, 2-((4-(((3-(ethyl(methyl)amino)propoxy)carbonyl)oxy)hexadecanoyl)oxy)propane-1,3-diyl dioctanoate] |
| 94.5% | CCCCCCCCCCCCC(CCOC(=O)CCCCC(OCCCCCCCC)OCCCCCCCC)OC(=O)OCCCN1CCCCC1 (stereo not shown) [Example 107, 3-(((3-(piperidin-1-yl)propoxy)carbonyl)oxy)pentadecyl 6,6-bis(octyloxy)hexanoate] |
| 12.8% | CCCCCCCCCCCCC(CCOC(=O)CCCCC(OCCCCCCCC)OCCCCCCCC)OC(=O)[C@@H]1CCCN1C (stereo partly drawn) [Example 118, (2S)-1-((6,6-bis(octyloxy)hexanoyl)oxy)pentadecan-3-yl 1-methylpyrrolidine-2-carboxylate] |
| 37.5% | CCCCCCCCCCCCC(CCOC(=O)CCCCC(OCCCCCCCC)OCCCCCCCC)OC(=O)OCCN(CC)CC (stereo not shown) [Example 113, 3-(((2-(diethylamino)ethoxy)carbonyl)oxy)pentadecyl 6,6-bis(octyloxy)hexanoate] |
| 97.8% | CCCCCCCCCCCCC(CCOC(=O)OCCCC(OCCCCCCCC)OCCCCCCCC)OC(=O)OCCCN(CC)CC (stereo not shown) [Example 130, 4,4-bis(octyloxy)butyl (3-(diethylamino)propyl) pentadecane-1,3-diyl dicarbonate] |
| 96.7% | CCCCC/C=C\C/C=C\CCCCCCCCC(CCOC(=O)CCCCC(OCCCCCCCC)OCCCCCCCC)OC(=O)OCCCN(CC)CC (stereo not shown) [Example 127, (12Z,15Z)-3-(((3-(diethylamino)propoxy)carbonyl)oxy)henicosa-12,15-dien-1-yl 6,6-bis(octyloxy)hexanoate] |

| Compound | % encapsulation mRNA Leptin |
| --- | --- |
| CCCCCCCCCCCCC(CCOC(=O)CCCCC(OCCCCCCCC)OCCCCCCCC)OC(=O)OCCCCN(CC)CC (stereo not shown) [Example 109, 3-(((4-(diethylamino)butoxy)carbonyl)oxy)pentadecyl 6,6-bis(octyloxy)hexanoate] | 80.6% |
